Results from ChEMBL document CHEMBL1201862, “PubChem BioAssay data set” (2004).
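Grown in 96-well plates, cells were treated for 48 hours with each compound at five concentrations. Insufficient inhibition: endpoint recorded as highest concentration tested. GI50: concentration for 50% inhibition of growth.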 Calls of active or inactive are those of the source. Rule as the data show it: active = GI50 up to about 1.1 µM and inactive = higher.

Key:
Test in all cases: DTP human tumour cell line panel, 48 h
[1] = tested on: A549
[2] = tested on: RXF 393
[3] = tested on: SNB-19
[4] = tested on: MDA-MB-231
[5] = tested on: PC-3
[6] = tested on: EKVX
[7] = tested on: UACC-62
[8] = tested on: OVCAR-8
[9] = tested on: T47D
[10] = tested on: BT-549
[11] = tested on: SK-MEL-5
[12] = tested on: SR
[13] = tested on: SN12C
[14] = tested on: ACHN
[15] = tested on: HOP-62
[16] = tested on: HT-29
[17] = tested on: HL-60
[18] = tested on: TK-10
[19] = tested on: SK-MEL-28
[20] = tested on: SF-268

Measured: GI50

Cc1cc(S(=O)(=O)Nc2nc(N)n(-c3ccccc3)n2)c(S)cc1Cl
inactive: [1] > 100 µM | [2] > 100 µM | [3] 43.1 µM | [4] > 100 µM | [5] > 100 µM | [6] > 100 µM | [7] > 100 µM | [8] > 100 µM | [9] > 100 µM | [10] 45.1 µM | [11] > 100 µM | [12] > 100 µM | [13] > 100 µM | [14] > 100 µM | [15] > 100 µM | [16] > 100 µM | [17] > 100 µM | [18] > 100 µM | [19] > 100 µM | [20] > 100 µM

CSc1ccc(NC(=O)C2CCCCC2C(=O)O)cc1 (stereo not given)
inactive: [1] > 100 µM | [2] > 100 µM | [3] > 100 µM | [4] > 100 µM | [5] > 100 µM | [6] > 100 µM | [7] > 100 µM | [8] > 100 µM | [9] > 100 µM | [10] > 100 µM | [11] > 100 µM | [12] > 100 µM | [13] > 100 µM | [14] > 100 µM | [15] > 100 µM | [16] > 100 µM | [17] > 100 µM | [18] > 100 µM | [19] > 100 µM | [20] > 100 µM

O=C1CC(=O)N(C2CCCCC2)C(=O)N1c1ccccc1S(=O)(=O)Oc1ccccc1
inactive: [1] > 100 µM | [2] > 100 µM | [3] > 100 µM | [4] > 100 µM | [5] > 100 µM | [6] > 100 µM | [7] > 100 µM | [8] > 100 µM | [9] 85.1 µM | [10] 49.5 µM | [11] > 100 µM | [12] > 100 µM | [13] > 100 µM | [14] 19.1 µM | [15] 33 µM | [16] > 100 µM | [17] > 100 µM | [18] > 100 µM | [19] > 100 µM | [20] 90.6 µM

O=[N+]([O-])C(=C/C1CCCCC1)/C(=C\C1CCCCC1)[N+](=O)[O-]
inactive: [1] 18.6 µM | [2] 1.49 µM | [3] 18.4 µM | [4] 2.73 µM | [5] 6.32 µM | [6] 9.4 µM | [7] 5.7 µM | [8] 3.3 µM | [9] 9.73 µM | [10] 5.42 µM | [11] 7.83 µM | [12] 1.8 µM | [13] 3.24 µM | [14] 3.5 µM | [15] 3.71 µM | [16] 5.48 µM | [17] 2.09 µM | [18] 6.27 µM | [19] 5.06 µM | [20] 3.27 µM

COC(=O)C1=C(O)C(C(=O)OC)[C@]2(O)[C@H](C(=O)OC)[C@H]1C[C@@H](c1ccc(Cl)cc1)[C@H]2C(=O)OC (stereo not given in full)
inactive: [1] 5.64 µM | [2] 4.62 µM | [3] 5.5 µM | [4] 16.5 µM | [5] 4.65 µM | [6] 10.9 µM | [7] 7.69 µM | [8] 5.89 µM | [9] 6.58 µM | [10] 6.12 µM | [11] 6.41 µM | [12] 4.17 µM | [13] 5.16 µM | [14] 7.45 µM | [15] 7.67 µM | [16] 12 µM | [17] 1.75 µM | [18] 13 µM | [19] 9.06 µM | [20] 6.79 µM

O=c1c2ncn(CCCl)c2n(-c2ccccc2)c(=S)n1-c1ccccc1
inactive: [1] > 100 µM | [2] > 100 µM | [3] > 100 µM | [4] > 100 µM | [5] > 100 µM | [6] > 100 µM | [7] > 100 µM | [8] > 100 µM | [9] > 100 µM | [10] > 100 µM | [11] > 100 µM | [12] > 100 µM | [13] > 100 µM | [14] > 100 µM | [15] > 100 µM | [16] > 100 µM | [17] > 100 µM | [18] > 100 µM | [19] > 100 µM | [20] > 100 µM

COc1cc2c(cc1O)[C@@H]1Cc3c(cc(OC)c(OC)c3Oc3cc4c(cc3OC)CCN(C)[C@@H]4Cc3ccc(O)cc3)[C@H](C2)N1C
inactive: [1] > 100 µM | [2] 2.1 µM | [3] > 100 µM | [4] 43.3 µM | [5] 36.2 µM | [6] > 100 µM | [7] > 55.8 µM | [8] 53 µM | [9] 36.1 µM | [10] 41.2 µM | [11] 15.8 µM | [12] 13 µM | [13] > 71.1 µM | [14] > 83.2 µM | [15] > 95.5 µM | [16] 35.4 µM | [17] 17.7 µM | [18] > 72.3 µM | [19] 18.6 µM | [20] > 78.9 µM

C=CCNC1=C2C[C@@H](C)C[C@@H](OC)C(OC(=O)CCCN(C)C)[C@H](C)/C=C(\C)[C@@H](OC(N)=O)[C@H](OC)/C=C\C=C(/C)C(=O)NC(=CC1=O)C2=O (stereo not given in full)
inactive: [1] 3.85 µM | [2] 3.98 µM | [3] 13.8 µM | [4] 5.45 µM | [5] 4.98 µM | [6] 13.1 µM | [7] 12.4 µM | [8] 4.1 µM | [9] 11.5 µM | [10] 13.4 µM | [11] 2.51 µM | [12] 2.59 µM | [13] 2.42 µM | [14] 7.48 µM | [15] 9.95 µM | [16] 2.7 µM | [17] 5.51 µM | [18] 11.6 µM | [19] 13.7 µM | [20] 12.6 µM

Cn1c(-c2ccccc2)cc(-c2ccc3c(c2)OCO3)c1-c1ccsc1
inactive: [1] > 100 µM | [2] > 100 µM | [3] > 100 µM | [4] > 100 µM | [5] > 100 µM | [6] > 100 µM | [7] > 100 µM | [8] > 100 µM | [9] > 100 µM | [10] > 100 µM | [11] > 100 µM | [12] > 100 µM | [13] > 100 µM | [14] > 100 µM | [15] > 100 µM | [16] > 100 µM | [17] > 100 µM | [18] > 100 µM | [19] > 100 µM | [20] > 100 µM

C#CCOCC12C=CC(O1)C1COC(=O)C12 (stereo not given)
inactive: [1] > 100 µM | [2] > 100 µM | [3] > 100 µM | [4] > 100 µM | [5] > 100 µM | [6] > 100 µM | [7] > 100 µM | [8] > 100 µM | [9] > 100 µM | [10] > 100 µM | [11] > 100 µM | [12] > 100 µM | [13] > 100 µM | [14] > 100 µM | [15] > 100 µM | [16] > 100 µM | [17] > 100 µM | [18] > 100 µM | [19] > 100 µM | [20] > 100 µM
